One assay addresses CDK2/cyclin E (Homo sapiens, UniProt P24941). Kind of assay: Assay of kinase activity (ADP-Glo). It counts as biochemical. As to conditions: kinase inhibitory activity, read-out: CDK2/E1 IC50. The method, boiled down: (§1)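 Kinase preincubated 10 min with compound in 50 mM Hepes, 10 mM MgCl2, 0.01% Brij35, 2 mM DTT, then substrate/ATP added for 60 min at 25 °C. ADP formed measured by ADP-Glo luminescence; IC50 by nonlinear concentration-response fitting.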

In the next assay the target is CDK4/cyclin D1 (Homo sapiens, UniProt P11802). Kind of assay: Assay of kinase activity (ADP-Glo). The format is biochemical. As to conditions: kinase inhibitory activity. The method, boiled down: as §1
Another assay has as its target CDK6/cyclin D3 (Homo sapiens, UniProt Q00534). Kind of assay: Assay of kinase activity (ADP-Glo). The format is biochemical. The following applies: kinase inhibitory activity. In short, it runs like this: (§2)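 ADP production quantified by luminescence after 60 min kinase reaction at 25 °C, started with substrate/ATP following 10 min enzyme-compound preincubation. Buffer: 50 mM Hepes, 10 mM MgCl2, 0.01% Brij35, 2 mM DTT. IC50 obtained by nonlinear curve fitting of inhibition data.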

The next assay concerns the target CDK9/cyclin T1 (Homo sapiens, UniProt P50750). Kind of assay: Assay of kinase activity (ADP-Glo). It counts as biochemical. As to conditions: kinase inhibitory activity. In short, it runs like this:
as §2

The test system of assay [1] is human acute myeloid leukemia MV-4-11 cells. Kind of assay: Assay of cell proliferation (CellTiter-Glo). It counts as cell-based. As to conditions: MV4-11, 144 h, 6 days, read-out: MV-4-11 IC50 of cell proliferation inhibitory activity. In short, it runs like this: (§3)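 Cells seeded per line at growth-adapted densities, treated 6 days at 37 °C/5% CO2 with nine 3-fold dilutions (10 µM to 0.1 nM final, 0.5% DMSO). Viability by CellTiter-Glo luminescence; IC50 from four-parameter fit.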

Assay [2] deals with human breast cancer HCC1806 cells. Kind of assay: Assay of cell proliferation (CellTiter-Glo). As to conditions: Homo sapiens, 144 h, 6 days, read-out: HCC1806 IC50 of cell proliferation inhibitory activity. The format is cell-based. The method, boiled down:
as §3

In assay [3] the test system is human breast cancer MCF-7 cells. Kind of assay: Assay of cell proliferation (CellTiter-Glo). It counts as cell-based. The following applies: 144 h, MCF7 cells, 6 days, read-out: MCF7 IC50 of cell proliferation inhibitory activity. In short, it runs like this: as §3
Assay [4] deals with human colon cancer HCT-116 cells. Kind of assay: Assay of cell proliferation (CellTiter-Glo). The format is cell-based. The following applies: 144 h, 6 days, read-out: HCT-116 IC50 of cell proliferation inhibitory activity. In short, it runs like this: as §3
For assay [5], the system named is human gastric cancer MKN1 cells. Kind of assay: Assay of cell proliferation (CellTiter-Glo). It counts as cell-based. The following applies: Homo sapiens, MKN-1, 144 h; MNK1, 6 days; read-out: MKN1 IC50 of cell proliferation inhibitory activity. In short, it runs like this: as §3
Assay [6] concerns Human ovarian cancer OVCAR3 cells. Kind of assay: Assay of cell proliferation (CellTiter-Glo). It counts as cell-based. As to conditions: Homo sapiens, OVCAR-3, 144 h, 6 days, read-out: OVCAR3 IC50 of cell proliferation inhibitory activity. The method, boiled down: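 OVCAR3 cells, 2000/well in RPMI 1640 with 20% FBS, treated with nine 3-fold dilutions from 10 µM to 0.1 nM (0.5% DMSO) for 6 days at 37 °C. Viability by CellTiter-Glo luminescence; IC50 by four-parameter fit.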

The structures appear in SMILES notation.

Sequence of CDK9/cyclin T1 (P50750 whole entry, species assumed): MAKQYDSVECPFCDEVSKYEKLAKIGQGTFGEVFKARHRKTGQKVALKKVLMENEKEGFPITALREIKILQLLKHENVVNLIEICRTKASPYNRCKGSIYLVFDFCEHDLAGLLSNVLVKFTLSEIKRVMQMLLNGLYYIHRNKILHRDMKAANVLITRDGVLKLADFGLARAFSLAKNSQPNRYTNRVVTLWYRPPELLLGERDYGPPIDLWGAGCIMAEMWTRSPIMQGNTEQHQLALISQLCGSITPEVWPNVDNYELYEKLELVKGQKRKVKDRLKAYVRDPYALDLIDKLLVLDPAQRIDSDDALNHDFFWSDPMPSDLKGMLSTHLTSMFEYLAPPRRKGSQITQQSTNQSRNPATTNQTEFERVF
Sequence of CDK9/cyclin T1 (O60563 whole entry partner, species assumed): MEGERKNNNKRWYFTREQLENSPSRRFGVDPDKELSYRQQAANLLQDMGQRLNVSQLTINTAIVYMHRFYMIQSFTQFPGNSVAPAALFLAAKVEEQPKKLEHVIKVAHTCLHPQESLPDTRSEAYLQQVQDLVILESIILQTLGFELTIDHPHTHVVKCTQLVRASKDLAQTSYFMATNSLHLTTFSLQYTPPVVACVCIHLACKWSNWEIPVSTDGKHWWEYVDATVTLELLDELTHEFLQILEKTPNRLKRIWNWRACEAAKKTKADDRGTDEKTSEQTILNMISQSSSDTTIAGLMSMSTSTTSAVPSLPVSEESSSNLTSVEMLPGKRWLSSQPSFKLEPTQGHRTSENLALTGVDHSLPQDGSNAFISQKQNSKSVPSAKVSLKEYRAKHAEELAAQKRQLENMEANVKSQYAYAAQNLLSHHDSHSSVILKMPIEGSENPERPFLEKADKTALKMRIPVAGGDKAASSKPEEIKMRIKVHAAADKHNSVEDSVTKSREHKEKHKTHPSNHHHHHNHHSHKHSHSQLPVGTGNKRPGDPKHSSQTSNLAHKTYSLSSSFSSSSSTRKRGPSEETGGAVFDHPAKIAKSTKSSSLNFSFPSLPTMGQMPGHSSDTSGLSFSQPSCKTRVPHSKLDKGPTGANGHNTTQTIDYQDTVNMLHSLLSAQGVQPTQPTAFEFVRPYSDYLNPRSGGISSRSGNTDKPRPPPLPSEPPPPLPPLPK
Sequence of CDK4/cyclin D1 (P11802 whole entry, species assumed): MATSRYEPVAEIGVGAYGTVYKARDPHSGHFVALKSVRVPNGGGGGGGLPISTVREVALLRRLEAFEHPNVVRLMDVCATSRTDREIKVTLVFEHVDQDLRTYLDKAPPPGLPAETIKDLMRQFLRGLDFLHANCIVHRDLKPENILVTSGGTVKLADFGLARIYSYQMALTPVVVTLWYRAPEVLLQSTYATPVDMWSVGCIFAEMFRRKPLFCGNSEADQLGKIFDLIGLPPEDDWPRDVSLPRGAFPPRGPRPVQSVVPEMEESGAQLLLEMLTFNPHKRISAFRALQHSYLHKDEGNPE
Sequence of CDK4/cyclin D1 (P24385 whole entry partner, species assumed): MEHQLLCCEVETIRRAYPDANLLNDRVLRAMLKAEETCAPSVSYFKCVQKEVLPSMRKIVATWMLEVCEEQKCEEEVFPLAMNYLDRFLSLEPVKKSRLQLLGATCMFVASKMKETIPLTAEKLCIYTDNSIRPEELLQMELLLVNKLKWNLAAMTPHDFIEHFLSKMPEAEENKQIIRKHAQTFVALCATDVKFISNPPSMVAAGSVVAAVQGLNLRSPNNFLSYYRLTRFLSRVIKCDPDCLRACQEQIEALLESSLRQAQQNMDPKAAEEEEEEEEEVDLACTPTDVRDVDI
Sequence of CDK6/cyclin D3 (Q00534 whole entry, species assumed): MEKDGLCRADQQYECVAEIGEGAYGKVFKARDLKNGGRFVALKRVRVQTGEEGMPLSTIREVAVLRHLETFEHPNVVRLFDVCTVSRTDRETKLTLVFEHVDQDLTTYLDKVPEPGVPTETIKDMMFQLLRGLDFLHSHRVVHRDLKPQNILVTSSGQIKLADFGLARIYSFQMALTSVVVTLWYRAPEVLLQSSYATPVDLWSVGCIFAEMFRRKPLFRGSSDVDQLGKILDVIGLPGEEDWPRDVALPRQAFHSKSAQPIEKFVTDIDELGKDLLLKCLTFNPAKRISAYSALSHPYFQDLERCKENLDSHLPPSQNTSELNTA
Sequence of CDK6/cyclin D3 (P30281 whole entry partner, species assumed): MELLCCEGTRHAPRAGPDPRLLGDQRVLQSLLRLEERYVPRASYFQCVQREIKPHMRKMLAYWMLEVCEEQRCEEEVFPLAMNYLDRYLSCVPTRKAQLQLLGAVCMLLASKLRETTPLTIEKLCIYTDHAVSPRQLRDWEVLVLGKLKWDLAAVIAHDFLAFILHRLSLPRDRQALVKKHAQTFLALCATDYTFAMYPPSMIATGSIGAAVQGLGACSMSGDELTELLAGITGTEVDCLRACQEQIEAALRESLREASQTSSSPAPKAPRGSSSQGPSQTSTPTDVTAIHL

Regarding `CC(C)n1nnc2ccc3cnc(Nc4ccc(C(=O)N5CCNCC5)c(F)c4)nc3c21` [Example I-19, (2-Fluoro-4-((1-isopropyl-1H-[1,2,3]triazolo[4,5-H]quinazolin-8-yl)amino)phenyl)(piperazin-1-yl)methanone], the IC50 at CDK2/cyclin E was determined as 1 nM; against CDK4/cyclin D1 it was 2 nM; at CDK6/cyclin D3, 12 nM; at CDK9/cyclin T1 it was 8 nM; in assay [1], 10 nM; in assay [2], 379 nM. Besides, the IC50 in assay [3] worked out at 42 nM; in assay [4], 21 nM; in assay [5], 85 nM; in assay [6] it was 49 nM.
As for `CC(C)n1nnc2ccc3cnc(Nc4ccc(C(=O)N5CC[C@H](N)C5)cc4)nc3c21` [Example I-4, (S)-(3-Aminopyrrolidin-1-yl)(4-((1-isopropyl-1H-[1,2,3]triazolo[4,5-H]quinazolin-8-yl)amino)phenyl)methanone], the IC50 at CDK2/cyclin E amounted to 0.08 nM; against CDK4/cyclin D1 it was 0.5 nM; on CDK6/cyclin D3, 8 nM; at CDK9/cyclin T1, 5 nM; in assay [1], 3 nM; in [2], 24 nM. The IC50 in [3] worked out at 18 nM; in assay [4] it was 25 nM; in assay [5] it was 8 nM; in assay [6] it was 12 nM.
Regarding `CC(C)n1nnc2ccc3cnc(Nc4ccc(C(=O)N5CCC(F)(F)CC5)cc4)nc3c21` [Example I-37, (4,4-Difluoropiperidin-1-yl)(4-((1-isopropyl-1H-[1,2,3]triazolo[4,5-H]quinazolin-8-yl)amino)phenyl)metha none], the IC50 was 0.8 nM at CDK2/cyclin E; 3 nM at CDK4/cyclin D1; 11 nM against CDK6/cyclin D3; 10 nM against CDK9/cyclin T1; 20 nM in assay [1]; 832 nM in assay [2]. Besides, the IC50 in [3] was found to be 239 nM; in assay [4] it was 136 nM; in assay [5], 58 nM; in assay [6], 372 nM.
Regarding `CN[C@@H]1CCN(C(=O)c2ccc(Nc3ncc4ccc5nnn(C(C)C)c5c4n3)cc2)C1` [Example I-7, (R)-(4-((1-Isopropyl-1H-[1,2,3]triazolo[4,5-H]quinazolin-8-yl)amino)phenyl)(3-(methylamino)pyrrolidin-1-yl)methanone], the IC50 on CDK2/cyclin E turned out to be 0.1 nM; on CDK4/cyclin D1 it was 0.8 nM; against CDK6/cyclin D3, 3 nM; at CDK9/cyclin T1, 3 nM; in assay [1], 5 nM; in assay [2], 20 nM. For the same molecule, the IC50 in assay [3] stood at 8 nM; in assay [4], 11 nM; in [5], 16 nM; in assay [6] it was 14 nM.
Turning to `CC(C)n1nnc2ccc3cnc(Nc4ccc(C(=O)N5CCC(O)CC5)cc4)nc3c21` [Example I-36, (4-Hydroxypiperidin-1-yl)(4-((1-isopropyl-1H-[1,2,3]triazolo[4,5-H]quinazolin-8-yl)amino)phenyl)metha none], the IC50 on CDK2/cyclin E was 0.8 nM; at CDK4/cyclin D1, 4 nM; at CDK6/cyclin D3, 16 nM; against CDK9/cyclin T1 it was 11 nM; in [1] it was 15 nM; in assay [2], 403 nM. Moreover, the IC50 amounted to 167 nM in assay [3], 80 nM in [4], 28 nM in assay [5] and 140 nM in assay [6].
Regarding `CC(C)n1nnc2ccc3cnc(Nc4ccc(C(=O)N5CCC(O)C5)cc4)nc3c21` (centres unmarked) [Example I-3, (3-Hydroxypyrrolidin-1-yl)(4-((1-isopropyl-1H-[1,2,3]triazolo[4,5-H]quinazolin-8-yl)amino)phenyl)methanone], the IC50 stood at 0.4 nM at CDK2/cyclin E; 1 nM on CDK4/cyclin D1; 4 nM on CDK6/cyclin D3; 6 nM against CDK9/cyclin T1; 302 nM in [2]; 94 nM in [4]. Further, the IC50 is 196 nM in assay [5] and 203 nM in assay [6].
Regarding `CN[C@H]1CCN(C(=O)c2ccc(Nc3ncc4ccc5nnn(C(C)C)c5c4n3)cc2)C1` [Example I-6, (S)-(4-((1-Isopropyl-1H-[1,2,3]triazolo[4,5-H]quinazolin-8-yl)amino)phenyl)(3-(methylamino)pyrrolidin-1-yl)methanone], the IC50 came to 0.06 nM at CDK2/cyclin E; 0.5 nM at CDK4/cyclin D1; 3 nM at CDK6/cyclin D3; 2 nM against CDK9/cyclin T1; 2 nM in assay [1]; 73 nM in assay [2]. The IC50 in [5] was 7 nM; in assay [6], 26 nM.
As for `CC(C)n1nnc2ccc3cnc(Nc4ccc(C(=O)N5CC6CCC(C5)N6)cc4)nc3c21` [Example I-25, (3,8-Diazabicyclo[3.2.1]octan-3-yl)(4-((1-isopropyl-1H-[1,2,3]triazolo[4,5-H]quinazolin-8-yl)amino)phenyl)metha none], the IC50 on CDK2/cyclin E was determined as 0.2 nM; at CDK4/cyclin D1, 1 nM; against CDK6/cyclin D3, 29 nM; against CDK9/cyclin T1 it was 16 nM; in assay [1], 4 nM; in [2] it was 85 nM. Also, the values for the IC50 in assay [5] and in assay [6] were 13 nM and 33 nM, respectively.
As to `CC1(O)CCCC1n1c(=O)c(C(F)F)cc2cnc(NC3CCN(S(C)(=O)=O)CC3)nc21` (centres unmarked) [PF06873600 (Ebvaciclib), reference compound], the IC50 at CDK9/cyclin T1 came out at 452 nM; in [1], 100 nM; in assay [2] it was 481 nM; in assay [3] it was 24 nM; in assay [4], 69 nM; in assay [5], 77 nM. Also, the IC50 in assay [6] is 118 nM.
Consider `C[C@@]1(O)CCC[C@H]1n1nnc2ccc3cnc(Nc4ccc(C(=O)N5CCOCC5)cc4)nc3c21` [Example I-67, (4-((1-((1R,2R)-2-Hydroxy-2-methylcyclopentyl)-1H-[1,2,3]triazolo[4,5-H]quinazolin-8-yl)amino)phenyl)(morpholino)methanone], for which the IC50 on CDK2/cyclin E amounted to 1 nM; against CDK4/cyclin D1, 2 nM; on CDK6/cyclin D3, 21 nM; against CDK9/cyclin T1, 46 nM; in assay [1] it was 5 nM; in assay [2], 137 nM. Further, the results for the IC50 in [5] and in assay [6] were 13 nM and 45 nM, respectively.
For `C[C@@]1(O)CCC[C@H]1n1nnc2ccc3cnc(Nc4ccc(C(=O)N5CC[C@H](N)C5)cc4)nc3c21` [Example I-62, ((S)-3-Aminopyrrolidin-1-yl)(4-((1-((1R,2R)-2-hydroxy-2-methylcyclopentyl)-1H-[1,2,3]triazolo[4,5-H]quinazolin-8-yl)amino)phenyl)methanone], the IC50 at CDK2/cyclin E was determined as 0.08 nM; against CDK4/cyclin D1, 0.5 nM; against CDK6/cyclin D3 it was 4 nM; against CDK9/cyclin T1, 3 nM; in [1], 5 nM; in [2], 54 nM. Moreover, the IC50 in [5] came to 8 nM; in assay [6], 28 nM.
For `CC(C)n1nnc2ccc3cnc(Nc4ccc(C(=O)N5CC[C@@H](N)C5)cc4)nc3c21` [Example I-5, (R)-(3-Aminopyrrolidin-1-yl)(4-((1-isopropyl-1H-[1,2,3]triazolo[4,5-H]quinazolin-8-yl)amino)phenyl)metha none], the IC50 turned out to be 0.07 nM on CDK2/cyclin E; 0.8 nM on CDK4/cyclin D1; 10 nM on CDK6/cyclin D3; 7 nM against CDK9/cyclin T1; 3 nM in assay [1]; 53 nM in assay [2]. Moreover, the IC50 in assay [5] worked out at 11 nM; in assay [6], 12 nM.
As for `CC(C)n1nnc2ccc3cnc(Nc4ccc(C(=O)N5CC[C@H](F)C5)cc4)nc3c21` [Example I-1, (S)-(3-Fluoropyrrolidin-1-yl)(4-((1-isopropyl-1H-[1,2,3]triazolo[4,5-H]quinazolin-8-yl)amino)phenyl)methanone], the IC50 is 0.2 nM on CDK2/cyclin E; 2 nM at CDK4/cyclin D1; 13 nM at CDK6/cyclin D3; 9 nM on CDK9/cyclin T1; 17 nM in [1]; 223 nM in assay [2]. The IC50 was 45 nM in assay [5] and 119 nM in assay [6].

For the origin of these results see EP4711369A1, “1H-[1,2,3]TRIAZOLO[4,5-H]QUINAZOLINE COMPOUNDS AS PROTEIN KINASE INHIBITORS” (Chengdu Cynogen Bio-Pharmaceutical Technology Co., Ltd., priority 2023, dated 2024).
